# In US4518611A, “2-Furylbutyrolactone modulation of the immune system in mammals” (priority 1983, dated 1985):
# “Also recorded” adds a separate entry of the source.
# What was measured:
# L-1210 leukemia cells = assay: Treatment of L-1210 leukemia in BDF1 mice (T/C ratios); assay type: in vivo, mouse; conditions: 20 mg/kg, seven days
# Description: Mice of the BDF1 strain are given in i.p. inoculation of 10^6 L-1210 leukemia cells on day 0. Twenty-four hours later, groups of 7 mice each are started on a nine day treatment regimen of various doses of the compounds of this invention. The experiment is continued according to the guidelines provided under the National Cancer Institute protocol for screening new anti-cancer agents and T/C ratios (median or mean survival time of treated groups over median or mean survival time of controls) are calculated. A T/C value ≥1.25 (or 125%) is considered significant anticancer activity.
# (§1) Mice of the BDF1 strain, inoculated with L-1210 leukemia cells, are treated for seven days with either 25, 50, 100, 200 or 400 mg/kg of Cpd. 1 or just buffer. The National Cancer Institute protocol for screening new anti-cancer agents is followed and T/C ratios are calculated.
# as §1, with “either 100” for “either 25, 50, 100, 200 or 400”, “Cpd. 1, 20 mg/kg of 5-flourouracil (5-FU), a known anti-cancer agent,” for “Cpd. 1”
# human lymphocytes = assay: In vitro lymphocyte stimulation assay, human lymphocytes; assay type: cell-based; set-up: key to Lymphocyte Stimulation Index, PHA / Lymphocyte Stimulation Index, Con-A: LSI = cpm of mitogen-stimulated group / cpm of control group
# Protocol: (§2) The purpose of this assay is to challenge lymphocytes in microcultures with one or more polyclonal mitogens at concentrations that will induce mitogenesis within 72 hours of stimulation.
# (§3) In the mouse model, spleens are removed from different strains of mice and the spleen cells are teased free and suspended in RPMI-1640 tissue culture medium at a concentration of usually […]. These cells are dispensed at a concentration of 5.0×10^5 cells per microculture well in a 96 well flat bottom 96 well tissue culture plate. All testing of the compounds of this invention or mitogens are done in replicates of 10. The cells are then treated with PHA, Con-A, specific antigens, or buffer only. If in vitro testing is done, varying concentrations of the compounds of this invention or buffer only are added to the cells as well. After treatment with the mitogens and/or compounds of this invention, the cells are incubated for 72 hours. The response of these cells to mitogens and/or the compounds of this invention is assessed using ^14 C-thymidine labeling on the fourth day at a concentration of 0.01 μCi/well. The labeled cells are harvested using a lymphocyte harvestor and placed onto fibrous paper discs. A scintillation cocktail is added to vials containing the discs and the results are obtained using a LKB-liquid scintillation counter (Model 1216/Rackbeta II). The data is expressed as a ratio of the cpm of the mitogen stimulated group to the control (nonmitogen) treated group=lymphocyte stimulation index (LSI).
# (§4) The lymphocyte stimulation assay may be performed directly on spleen cells obtained from various strains of mice not treated with the compounds of this invention or on lymphocytes obtained from human […]. […] Alternatively, the mice may be treated in vivo with the compounds of this invention by intraperitoneal multi-dose schedules, followed by sacrifice and harvesting spleen lymphocytes. These cells are then tested for their response to polyclonal mitogens or specific antigens used to immunize the mice. In this system however, no additional compound is added to the in vitro lymphocyte stimulation assay system.
# Lymphocytes isolated from 5 human volunteers are treated in vitro with PHA and Con-A and either 0.1, 1, 10, 50, or 100 μg/well of Cpd. 1, 0.1, 1, 10, 50, or 100 μg/well of AA, or buffer.
# spleen lymphocytes [1] = assay: Lymphocyte stimulation assay after in vivo treatment, C57BL/6 mice; conditions: 4 days
# Protocol: as §2, §3, §4
# Two strains of mice, C57BL/6 and BDF1 are treated for seven days with i.p. administration of either 25, 50, 100, 200, or 400 mg/kg of Cpd. 1 or just buffer. This is followed on the eighth day by a lymphocyte stimulation assay.
# A comparison is made of the lymphocyte response of C57BL/6 mice treated 4 days with i.p. administration of either 50, 100, 200, 400 or 800 mg/kg of Cpd. 1, 50, 100, 200, 400 or 800 mg/kg of ascorbic acid (AA), or just buffer. This is followed on the fifth day by a lymphocyte stimulation assay.
# Two strains of mice, C57BL/6 and BALB/c, are treated 4 days with i.p. administration of either 50, 100, 200, or 400 mg/kg of Cpd. 1, or just buffer. This is followed on the fifth day by a lymphocyte stimulation assay.
# C57BL/6 mice were treated with four daily i.p. doses of either 50, 100, 200, or 400 mg/kg of Cpd. 1 or just buffer. On the fifth day a lymphocyte stimulation assay was performed.
# Mice of the C57BL/6 strain were tested with i.p. administration of either 100, 200, 400 or 600 mg/kg of Cpd. 1 or just buffer. This was followed by removal of spleens and treatment of lymphocytes therein with mitogens PHA and Con-A.
# The compound of Example 2, Cpd. 2, was tested in vivo by using C57BL/6 mice and treating them with […] or just buffer for four consecutive days by the i.p. route. On the fifth day a lymphocyte stimulation assay was performed.
# spleen lymphocytes [2] = assay: In vitro lymphocyte stimulation assay, C57BL/6 spleen lymphocytes; assay type: cell-based, mouse
# Protocol: as §2, §3, §4
# An in vitro lymphocyte stimulation assay is performed directly on normal spleen lymphocytes removed from five normal C57BL/6 mice, using concentrations of Cpd. […] Following three days of incubation the assay is completed.
# An in vitro lymphocyte stimulation assay was performed using spleen lymphocytes from normal C57BL/6 mice. The lymphocytes were treated with either 1, 5, 10, 50 or 100 μg/well of Cpd. 1 or buffer.
# Cpd. 2 was tested using normal spleen lymphocytes from C57BL/6 mice. A lymphocyte stimulation assay was conducted using either 1, 5, 10, 50, or 100 μg/well […] or just buffer.
# Spleen cells from C57BL/6 mice were treated, in vitro, with the crystallizing reagents, succinic acid and succinimide. Since these compounds are spontaneously released from the molecular complex in solution at a molar ratio of 2 moles of Cpds. 1, 2, or 3 per mole of the crystalline reagent, these reagents were treated in the lymphocyte stimulation assay at proper molar concentrations.
# The compound of example 3, Cpd. 3, was used to treat C57BL/6 spleen lymphocytes in vitro. The lymphocytes were treated with either 1, 5, 10, 50, or 100 μg/well of Cpd. 3 or just buffer and then a lymphocyte stimulation assay was performed.
structure (smiles),measurement,setting,value
"O=c1[nH]cc(F)c(=O)[nH]1 [5-FU, 5-flourouracil, reference compound]",Median Survival Time,L-1210 leukemia cells,30
same,T/C,L-1210 leukemia cells,1.50
"O=C1O[C@H]([C@@H](O)CO)C(O)=C1O [AA, ascorbic acid, reference compound]","Lymphocyte Stimulation Index, Con-A",human lymphocytes; 0.1 μg/well,24.37
same,"Lymphocyte Stimulation Index, PHA",human lymphocytes; 0.1 μg/well,38.29
same,"Lymphocyte Stimulation Index, Con-A",human lymphocytes; 1.0 μg/well,24.76
same,"Lymphocyte Stimulation Index, PHA",human lymphocytes; 1.0 μg/well,34.69
same,"Lymphocyte Stimulation Index, Con-A",human lymphocytes; 10 μg/well,27.35
same,"Lymphocyte Stimulation Index, PHA",human lymphocytes; 10 μg/well,35.10
same,"Lymphocyte Stimulation Index, Con-A",human lymphocytes; 50 μg/well,23.31
same,"Lymphocyte Stimulation Index, PHA",human lymphocytes; 50 μg/well,35.93
same,"Lymphocyte Stimulation Index, Con-A",human lymphocytes; 100 μg/well,25.18
same,"Lymphocyte Stimulation Index, PHA",human lymphocytes; 100 μg/well,34.23
same,effect on lymphocyte response (in words),"human lymphocytes; in vitro, PHA and Con-A",no significant proliferative or anti-proliferative effect
same,"Lymphocyte Stimulation Index, Con-A",spleen lymphocytes [1]; 50 mg/kg i.p.,25.5
same,"Lymphocyte Stimulation Index, Control (no mitogen)",spleen lymphocytes [1]; 50 mg/kg i.p.,.56
same,"Lymphocyte Stimulation Index, PHA",spleen lymphocytes [1]; 50 mg/kg i.p.,17.1
same,"Lymphocyte Stimulation Index, Con-A",spleen lymphocytes [1]; 100 mg/kg i.p.,19.8
same,"Lymphocyte Stimulation Index, Control (no mitogen)",spleen lymphocytes [1]; 100 mg/kg i.p.,1.8
same,"Lymphocyte Stimulation Index, PHA",spleen lymphocytes [1]; 100 mg/kg i.p.,17.1
same,"Lymphocyte Stimulation Index, Con-A",spleen lymphocytes [1]; 200 mg/kg i.p.,21.1
same,"Lymphocyte Stimulation Index, Control (no mitogen)",spleen lymphocytes [1]; 200 mg/kg i.p.,1.3
same,"Lymphocyte Stimulation Index, PHA",spleen lymphocytes [1]; 200 mg/kg i.p.,10.0
same,"Lymphocyte Stimulation Index, Con-A",spleen lymphocytes [1]; 400 mg/kg i.p.,17.8
same,"Lymphocyte Stimulation Index, Control (no mitogen)",spleen lymphocytes [1]; 400 mg/kg i.p.,1.3
same,"Lymphocyte Stimulation Index, PHA",spleen lymphocytes [1]; 400 mg/kg i.p.,14.3
same,"Lymphocyte Stimulation Index, Con-A",spleen lymphocytes [1]; 800 mg/kg i.p.,23.9
same,"Lymphocyte Stimulation Index, Control (no mitogen)",spleen lymphocytes [1]; 800 mg/kg i.p.,.50
same,"Lymphocyte Stimulation Index, PHA",spleen lymphocytes [1]; 800 mg/kg i.p.,12.1
same,effect on Con-A response (in words),"spleen lymphocytes [1]; i.p., Con-A",a single stimulation of proliferation did occur at 50 mg/kg
same,effect on PHA response (in words),"spleen lymphocytes [1]; i.p., PHA",No statistically significant measurable effect
"O=C1CCC(=O)N1 [Succinimide, succinimide, reference compound]","Lymphocyte Stimulation Index, Control (no mitogen)",spleen lymphocytes [2]; 13.92 μg/well,1.4
same,effect on PHA and Con-A mitogenesis (in words),spleen lymphocytes [2]; in vitro,no significant suppressive or enhancing effect
"CN1C(=O)CCC1=O.Cc1ccc(C2(O)C(=O)OC3C(O)COC32O)o1.Cc1ccc(C2(O)C(=O)OC3C(O)COC32O)o1 (centres unmarked) [Cpd. 3, 2-furylbutyrolactone:N-methylsuccinimide]","Lymphocyte Stimulation Index, Control (no mitogen)",spleen lymphocytes [2]; 1 μg/well,.60
same,"Lymphocyte Stimulation Index, Control (no mitogen)",spleen lymphocytes [2]; 5 μg/well,.64
same,"Lymphocyte Stimulation Index, Control (no mitogen)",spleen lymphocytes [2]; 10 μg/well,.47
same,"Lymphocyte Stimulation Index, PHA",spleen lymphocytes [2]; 10 μg/well,24.0
same,"Lymphocyte Stimulation Index, Control (no mitogen)",spleen lymphocytes [2]; 50 μg/well,.27
same,"Lymphocyte Stimulation Index, Control (no mitogen)",spleen lymphocytes [2]; 100 μg/well,.25
same,effect on Con-A response (in words),"spleen lymphocytes [2]; in vitro, Con-A",The 50 μg/well dose slightly stimulated the response to Con-A; also recorded: the 100 μg/well dose suppressed the response
same,effect on PHA response (in words),"spleen lymphocytes [2]; in vitro, PHA",The 10 μg/well dose of Cpd. 3 significantly stimulated the response to PHA; also recorded: the 50 and 100 μg/well doses suppressed the response
"O=C(O)CCC(=O)O [Succinic Acid, succinic acid, reference compound]",effect on PHA and Con-A mitogenesis (in words),spleen lymphocytes [2]; in vitro,a decrease in PHA and Con-A mitogenesis with increased succinic acid dosage
